According to patent publication US10376520B2, “Methods for the treatment of cardiovascular disorders” (Galapagos NV, priority 2015, dated 2019):

Tested on: Subjects With Active Crohn's Disease
Assay: Atherogenic index, Study 5 (Crohn's disease)
Assay type: in vivo, human
Conditions: for Atherogenic index Mean CFB - 10 weeks results / Atherogenic index Mean percentage CFB - 10 weeks results / Atherogenic index Median CFB - 10 weeks results: 200 mg q.d.
Source text: As used herein, the term ‘atherogenic index’ refers to
This is a double-blind, randomized, placebo-controlled, multi-centre Phase 2 study to investigate the efficacy and safety of Compound 1 administered once daily for the treatment of active CD with evidence of mucosal ulceration. The pharmacokinetics (including a PK substudy) and pharmacodynamics of Compound 1 and metabolite in CD will also be characterised.
A total of 180 eligible subjects will be randomized to receive Compound 1 or placebo in addition to their stable background treatment (eg, corticosteroids, aminosalicylates, or CD-related antibiotics). The study will consist of 2 parts, with total treatment duration of 20 weeks. Randomization in Part 1 will be stratified according the subject's previous anti-TNF exposure/response, CRP level at Screening, and oral corticosteroid use at visit Day −1.
After the first 10 weeks of treatment in Part 1, patients will be re-randomized for Part 2 as shown in the diagram below and will be stratified according to the subject's clinical response, previous anti-TNF exposure/response, and oral corticosteroid use at visit Day −1.
The atherogenic index has been identified to be a good predictor of cardiovascular disorders risks and is calculated as follows: […]

[1] = 200 mg q.d. continued week 10 to 20, week 2
[2] = 200 mg q.d. continued week 10 to 20, week 4
[3] = 200 mg q.d. continued week 10 to 20, week 6
[4] = 200 mg q.d. continued week 10 to 20, week 10
[5] = 200 mg q.d. continued week 10 to 20, week 12
[6] = 200 mg q.d. continued week 10 to 20, week 16
[7] = 200 mg q.d. continued week 10 to 20, week 20
[8] = 200 mg q.d. week 0 to 10, to 100 mg q.d. week 10 to 20, week 2
[9] = 200 mg q.d. week 0 to 10, to 100 mg q.d. week 10 to 20, week 4
[10] = 200 mg q.d. week 0 to 10, to 100 mg q.d. week 10 to 20, week 6
[11] = 200 mg q.d. week 0 to 10, to 100 mg q.d. week 10 to 20, week 10
[12] = 200 mg q.d. week 0 to 10, to 100 mg q.d. week 10 to 20, week 12
[13] = 200 mg q.d. week 0 to 10, to 100 mg q.d. week 10 to 20, week 16
[14] = 200 mg q.d. week 0 to 10, to 100 mg q.d. week 10 to 20, week 20
[15] = 200 mg q.d. week 0 to 10, to placebo week 10 to 20, week 2
[16] = 200 mg q.d. week 0 to 10, to placebo week 10 to 20, week 4
[17] = 200 mg q.d. week 0 to 10, to placebo week 10 to 20, week 6
[18] = 200 mg q.d. week 0 to 10, to placebo week 10 to 20, week 10
[19] = 200 mg q.d. week 0 to 10, to placebo week 10 to 20, week 12
[20] = 200 mg q.d. week 0 to 10, to placebo week 10 to 20, week 16
[21] = 200 mg q.d. week 0 to 10, to placebo week 10 to 20, week 20
[22] = placebo week 0 to 10, to 100 mg q.d. week 10 to 20, week 12
[23] = placebo week 0 to 10, to 100 mg q.d. week 10 to 20, week 16
[24] = placebo week 0 to 10, to 100 mg q.d. week 10 to 20, week 20

O=C(Nc1nc2cccc(-c3ccc(CN4CCS(=O)(=O)CC4)cc3)n2n1)C1CC1 [Compound 1, cyclopropanecarboxylic acid {5-[4-(1,1-dioxo-thiomorpholin-4-ylmethyl)-phenyl]-[1,2,4]triazolo[1,5-a]pyridin-2yl}-amide]
Atherogenic index Mean percentage CFB - 20 weeks results [1]: −6.93% | Atherogenic index Median CFB - 20 weeks results [1]: -0.25 mmol/L | Atherogenic index Mean percentage CFB - 20 weeks results [2]: −6.67% | Atherogenic index Median CFB - 20 weeks results [2]: -0.21 mmol/L | Atherogenic index Mean percentage CFB - 20 weeks results [3]: −8.51% | Atherogenic index Median CFB - 20 weeks results [3]: -0.22 mmol/L | Atherogenic index Mean percentage CFB - 20 weeks results [4]: −3.49% | Atherogenic index Median CFB - 20 weeks results [4]: -0.13 mmol/L | Atherogenic index Mean percentage CFB - 20 weeks results [5]: −1.27% | Atherogenic index Median CFB - 20 weeks results [5]: -0.13 mmol/L | Atherogenic index Mean percentage CFB - 20 weeks results [6]: −0.22% | Atherogenic index Median CFB - 20 weeks results [6]: -0.06 mmol/L | Atherogenic index Mean percentage CFB - 20 weeks results [7]: 3.38% | Atherogenic index Median CFB - 20 weeks results [7]: 0.01 mmol/L | Atherogenic index Mean percentage CFB - 20 weeks results [8]: −12.02% | Atherogenic index Median CFB - 20 weeks results [8]: -0.37 mmol/L | Atherogenic index Mean percentage CFB - 20 weeks results [9]: −12.95% | Atherogenic index Median CFB - 20 weeks results [9]: -0.38 mmol/L | Atherogenic index Mean percentage CFB - 20 weeks results [10]: −13.82% | Atherogenic index Median CFB - 20 weeks results [10]: -0.48 mmol/L | Atherogenic index Mean percentage CFB - 20 weeks results [11]: −11.54% | Atherogenic index Median CFB - 20 weeks results [11]: -0.48 mmol/L | Atherogenic index Mean percentage CFB - 20 weeks results [12]: −5.12% | Atherogenic index Median CFB - 20 weeks results [12]: -0.25 mmol/L | Atherogenic index Mean percentage CFB - 20 weeks results [13]: −4.54% | Atherogenic index Median CFB - 20 weeks results [13]: -0.15 mmol/L | Atherogenic index Mean percentage CFB - 20 weeks results [14]: −8.14% | Atherogenic index Median CFB - 20 weeks results [14]: -0.39 mmol/L | Atherogenic index Mean percentage CFB - 20 weeks results [15]: −7.38% | Atherogenic index Median CFB - 20 weeks results [15]: -0.31 mmol/L | Atherogenic index Mean percentage CFB - 20 weeks results [16]: −10.10% | Atherogenic index Median CFB - 20 weeks results [16]: -0.29 mmol/L | Atherogenic index Mean percentage CFB - 20 weeks results [17]: −2.55% | Atherogenic index Median CFB - 20 weeks results [17]: -0.14 mmol/L | Atherogenic index Mean percentage CFB - 20 weeks results [18]: −5.14% | Atherogenic index Median CFB - 20 weeks results [18]: -0.19 mmol/L | Atherogenic index Mean percentage CFB - 20 weeks results [19]: 9.34% | Atherogenic index Median CFB - 20 weeks results [19]: 0.14 mmol/L | Atherogenic index Mean percentage CFB - 20 weeks results [20]: 19.14% | Atherogenic index Median CFB - 20 weeks results [20]: 0.35 mmol/L | Atherogenic index Mean percentage CFB - 20 weeks results [21]: 19.82% | Atherogenic index Median CFB - 20 weeks results [21]: 0.38 mmol/L | Atherogenic index Mean CFB - 10 weeks results (week 2): -0.31 mmol/L | Atherogenic index Mean percentage CFB - 10 weeks results (week 2): −8.20% | Atherogenic index Median CFB - 10 weeks results (week 2): -0.31 mmol/L | Atherogenic index Mean CFB - 10 weeks results (week 4): -0.33 mmol/L | Atherogenic index Mean percentage CFB - 10 weeks results (week 4): −8.79% | Atherogenic index Median CFB - 10 weeks results (week 4): -0.28 mmol/L | Atherogenic index Mean CFB - 10 weeks results (week 6): -0.32 mmol/L | Atherogenic index Mean percentage CFB - 10 weeks results (week 6): −8.69% | Atherogenic index Median CFB - 10 weeks results (week 6): -0.29 mmol/L | Atherogenic index Mean CFB - 10 weeks results (week 10): -0.25 mmol/L | Atherogenic index Mean percentage CFB - 10 weeks results (week 10): −5.98% | Atherogenic index Median CFB - 10 weeks results (week 10): -0.21 mmol/L | Atherogenic index Mean percentage CFB - 20 weeks results [22]: 0.84% | Atherogenic index Median CFB - 20 weeks results [22]: -0.10 mmol/L | Atherogenic index Mean percentage CFB - 20 weeks results [23]: −0.97% | Atherogenic index Median CFB - 20 weeks results [23]: -0.25 mmol/L | Atherogenic index Mean percentage CFB - 20 weeks results [24]: 3.17% | Atherogenic index Median CFB - 20 weeks results [24]: -0.10 mmol/L
